Entries after “also recorded” stand apart in the source; their conditions may differ.
Key:
AMPA = conditions: cited from earlier work
[1] = biological target: NMDA (CGS 19755 receptor); test: Selectivity: CGS 19755 receptor binding test
Method: The experiment was carried out according to the method of Foster et al. [A. Foster and E. H. F. Wong: Brit.

AMPA recognition site = test: ^3H-AMPA binding (radioligand competitive binding assay); set-up: species or system rat; conditions: compared with DNQX
Method: (§1) 1. ^3 H-AMPA and ^3 H-kainate binding (radioligand competitive binding assay)
(§2) The experiment was carried out according to the method of Murphy et al. [D. E. Murphy, E. W. Snowhill, M. Williams: Neurochem. Res. 12, 775-782 (1987)] using a membrane specimen isolated from rat brain. The binding of kainate labeled with tritium on a rat cortex specimen was measured according to the method of Honore et al. [T. Honore, J. Dejer and M. Nielsen: Neurosci. Lett. 65, 48-52 (1986)].

kainate recognition site = test: ^3H-kainate binding (radioligand competitive binding assay); set-up: species or system rat; conditions: compared with DNQX
Method: as §1, §2

AMPA and kainate = AMPA and kainate antagonism (overall conclusion from the binding and selectivity tests)
Method: as §2
The experiment was carried out according to the method of Foster et al. [A. Foster and E. H. F. Wong: Brit. J. Pharmacol. 91, 403-409, (1987)]. When applying the CGS 19755 receptor binding test the method of Murphy et al. [D. E. Murphy, A. J. Hutchison, S. D. Hurt, M. Williams and M. A. Sills: Brit. J. Pharmacol. 95, 932-938 (1988)] was applied.

Structure (SMILES)	AMPA antagonizing property, in words (AMPA)	Binding of ^3H-CGS-19755 Ki [1]	displacement of labeled AMPA, in words (AMPA recognition site)	displacement of labeled kainate, in words (kainate recognition site)	AMPA and kainate antagonism, in words (AMPA and kainate)
N#Cc1cc2[nH]c(=O)c(=O)[nH]c2cc1[N+](=O)[O-] [CNQX, 6-cyano-7-nitro-quinoxaline-2,3-dione]	selective AMPA antagonizing property	–	–	–	–
O=c1[nH]c2cc([N+](=O)[O-])c([N+](=O)[O-])cc2[nH]c1=O [DNQX, 6,7-dinitroquinoxaline-2,3-dione, reference compound]	selective AMPA antagonizing property	does not "converge"	–	–	–
O=c1[nH]c2cc([N+](=O)[O-])c(S(=O)(=O)NCCN3CCCCC3)cc2[nH]c1=O [Example 17, 1,2,3,4-Tetrahydro-7-nitro-2,3-dioxo-N-(2-piperidinoethyl)-6-quinoxaline sulfonamide]	–	not "converge"	affinity similar to that of DNQX; also recorded: good reversible ligand	affinity similar to that of DNQX; also recorded: good reversible ligand	selective AMPA and kainate antagonists
O=c1[nH]c2cc([N+](=O)[O-])c(S(=O)(=O)N(CCO)CCO)cc2[nH]c1=O [Example 24, N,N-bis(2-Hydroxyethyl)-1,2,3,4-tetrahydro-7-nitro-2,3-dioxo-6-quinoxaline sulfonamide]	–	does not "converge"	–	–	selective AMPA and kainate antagonists

From patent publication US5912245A, “Acid amide derivatives and process for the preparation thereof” (Egis Gyogyszergyar RT., priority 1994, dated 1999)
